We go through 1 compound from patent publication US20240166626A1, “Compounds and Methods for Preventing, Treating, or Ameliorating Airway Disease” (THOMAS JEFFERSON UNIVERSITY, priority 2021, published 2024).

For this assay, the system named is mouse airway tissue. Description: Measurement of airway contractility in ex vivo mouse lung tissue slices. Here is the method:
FIGS. 4A-4F: DFPQ inhibits internalization of the β2AR and protects from agonist induced desensitization in cell and tissue models. FIG. 4A: Effect of DFPQ on agonist-promoted internalization of the β2AR. HEK 293 cells stably expressing FLAG-β2AR were pre-incubated with 0.1% DMSO or 10 μM DFPQ for 30 min and then stimulated with the indicated concentrations of ISO for up to 60 min. Cells were fixed and receptor surface expression was measured by ELISA. […] Cells were lysed and cAMP production was measured by ELISA. […] FIG. 4C: Mouse airway tissue were contracted with 1 μM methacholine for 5 min and then incubated overnight with 1 μM ISO±1 μM DFPQ. […] Airway contractility was measured by luminal area of bronchioles by microscopy at various times. […]
Cell culture GLOSENSOR™ cells (Promega) were maintained in Dulbecco's modified Eagle's medium (DMEM) containing 10% fetal bovine serum (FBS) and 200 μg/ml Hygromycin B. […]® ADRB2 cells (DiscoveRx) were maintained with the AssayComplete™ Cell Culture kit (DiscoveRx catalog #92-3107G). […] Cells were read every three minutes for 18 minutes on a PolarStar Optima plate reader (BMG) to establish peak signal. ISO was added to each well to a final concentration of 1 μM, and luminescence was determined in kinetic mode at room temperature (23-25° C.). […] Luminescence was determined at room temperature (23-25° C.) on a PolarStar Optima plate reader (BMG). […]

With `Fc1ccc(Nc2nc(NC3CCCCC3)c3ccccc3n2)cc1F` [DFPQ, N^4-cyclohexyl-N^2-(3,4-difluorophenyl)quinazoline-2,4-diamine], the “ISO mediated reversal of airway contraction on day 2” value (overnight 1 μM ISO + 1 μM DFPQ, relative to control, FIG. 4C) is reported as “largely preserved”. Further, the protection from desensitization result (up to 25 minutes post ISO challenge on day 2, FIG. 4D) is reported as “significant protection from desensitization”.
